Source: PubChem BioAssay (NCI)
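1) Cells in 96-well plates. 2) Compound, 48 h, 5 concentrations. 3) Linear interpolation between surrounding doses. 4) Unreached endpoint = highest concentration. Here, GI50 denotes the concentration required for 50% inhibition of growth. TGI denotes the concentration required for complete inhibition of growth.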

Tests used:
Assay in all cases: NCI anticancer screen, dose series, 48 h
MCF7 breast = system: MCF7 breast
CCRF-CEM leukemia = system: CCRF-CEM leukemia
K-562 leukemia = system: K-562 leukemia
OVCAR-8 ovarian = system: OVCAR-8 ovarian
786-0 renal = system: 786-0 renal
OVCAR-5 ovarian = system: OVCAR-5 ovarian
COLO 205 colon = system: COLO 205 colon
MALME-3M melanoma = system: MALME-3M melanoma
PC-3 prostate = system: PC-3 prostate
SK-OV-3 ovarian = system: SK-OV-3 ovarian

| SMILES | TGI (MCF7 breast) | TGI (CCRF-CEM leukemia) | TGI (K-562 leukemia) | TGI (OVCAR-8 ovarian) | TGI (786-0 renal) | TGI (OVCAR-5 ovarian) | TGI (COLO 205 colon) | TGI (MALME-3M melanoma) | TGI (PC-3 prostate) | GI50 (CCRF-CEM leukemia) | GI50 (K-562 leukemia) | GI50 (SK-OV-3 ovarian) | TGI (SK-OV-3 ovarian) | GI50 (OVCAR-8 ovarian) | GI50 (786-0 renal) | GI50 (MALME-3M melanoma) | GI50 (PC-3 prostate) | GI50 (OVCAR-5 ovarian) | GI50 (COLO 205 colon) | GI50 (MCF7 breast) |
| --- | --- | --- | --- | --- | --- | --- | --- | --- | --- | --- | --- | --- | --- | --- | --- | --- | --- | --- | --- | --- |
| O=C(CCNC12CC3CC(CC(C3)C1)C2)c1ccccc1 | 34.9 µM | 39.2 µM | 36.5 µM | 45 µM | 31.6 µM | 71.7 µM | 34.9 µM | 32.1 µM | 50.5 µM | – | – | – | – | – | – | – | – | – | – | – |
| COc1cnc2c(c1)C(=O)c1c-2n(CCCN2CCOCC2)c(=O)c2cc(F)ccc12 | – | > 100 µM | > 100 µM | > 100 µM | 1.2 µM | – | – | 3.42 µM | > 100 µM | 0.0853 µM | 0.32 µM | 0.282 µM | 1.92 µM | 0.246 µM | 0.254 µM | 0.503 µM | 0.369 µM | – | – | – |
| COC(=O)CC[N+]1=CCC(c2ccccc2)(c2ccccc2)O1 | > 100 µM | – | > 100 µM | > 100 µM | > 100 µM | > 100 µM | > 100 µM | – | > 100 µM | – | – | – | > 100 µM | – | – | – | – | – | – | – |
| CCN1CCN(Cc2ccc(NC(=O)c3cccc(C#Cc4cccc5[nH]nc(N)c45)c3)cc2C(F)(F)F)CC1 | – | 3.96 µM | 0.154 µM | 1.53 µM | 1.32 µM | 2.07 µM | 1.28 µM | 0.422 µM | 3.13 µM | 0.778 µM | – | 0.802 µM | 2.2 µM | 0.395 µM | 0.402 µM | 0.0273 µM | 1.36 µM | 0.685 µM | 0.185 µM | – |
| O=C(Nc1nc2ccc([N+](=O)[O-])cc2s1)C(=O)C(C1OC(=O)c2ccccc21)[N+](=O)[O-] (centres undefined) | – | > 100 µM | > 100 µM | > 100 µM | > 100 µM | > 100 µM | > 100 µM | > 100 µM | – | – | – | – | > 100 µM | – | – | – | – | – | – | – |
| COc1cc2ccnc([C@@H](OC(=O)c3ccccc3)c3ccc(OC)c(OC)c3OC)c2cc1OC | – | > 100 µM | > 100 µM | > 100 µM | > 100 µM | > 100 µM | > 100 µM | 99.8 µM | – | – | – | – | > 100 µM | – | – | – | – | – | – | – |
| CCn1c(C)nn2c(=O)c3ccccc3nc2c1=O | – | > 100 µM | > 100 µM | > 100 µM | > 100 µM | > 100 µM | > 100 µM | > 100 µM | – | – | – | – | > 100 µM | – | – | – | – | – | – | – |
| CC1(C)C(=O)/C=C\C(=O)C(C)(C)C2=CC=C(O2)C(C)(C)C(=O)/C=C\C(=O)C(C)(C)C2=CC=C1O2 | – | > 100 µM | > 100 µM | > 100 µM | > 100 µM | > 100 µM | > 100 µM | > 100 µM | – | – | – | – | > 100 µM | – | – | – | – | – | – | – |
| CC(=O)[CH-]C(=O)c1ccccc1.CC(=O)[CH-]C(=O)c1ccccc1.CN(C)c1ccc([O-])cc1.CN(C)c1ccc([O-])cc1.Cl.[Ti+4] | – | > 31.6 µM | > 31.6 µM | > 31.6 µM | > 31.6 µM | > 100 µM | 22.5 µM | 26.4 µM | – | 9.65 µM | 9.89 µM | 17.1 µM | > 31.6 µM | 21.9 µM | 22.8 µM | 14.8 µM | – | 49.2 µM | 14.9 µM | – |
| C=CCO[C@H]1CO[C@H]2[C@@H]1OC[C@@H]2Oc1ccc(Nc2ccnc(Nc3ccc(O[C@H]4CO[C@H]5[C@@H]4OC[C@@H]5OCC=C)c(Cl)c3)n2)cc1Cl | 3.38 µM | 3.43 µM | 1.9 µM | 5.92 µM | 3.37 µM | 3.29 µM | 4.06 µM | 2.91 µM | – | 0.652 µM | 0.378 µM | 16.8 µM | 31.2 µM | 1.93 µM | 1.87 µM | 1.54 µM | – | 1.83 µM | 1.6 µM | 1.56 µM |
| CCN(CC)N=Nc1c(C(N)=O)n[nH]c1C | > 100 µM | 54.5 µM | – | > 100 µM | > 100 µM | – | > 100 µM | > 100 µM | > 100 µM | – | – | – | 97.9 µM | – | – | – | – | – | – | – |
| Cc1c(C(=O)C/C(=N/NC(=O)c2ccccc2O)C(=O)Nc2ccccc2C(C)C)[n+](=O)c2ccccc2n1[O-] | – | 28.8 µM | > 100 µM | > 100 µM | > 100 µM | > 100 µM | > 100 µM | > 100 µM | – | – | – | – | > 100 µM | – | – | – | – | – | – | – |
| COC([CH2][Hg][n]1cnc2c1c(=O)n(C)c(=O)n2C)CN1C(=O)c2ccccc2S1(=O)=O (centres undefined) | > 100 µM | – | > 100 µM | > 100 µM | > 100 µM | > 100 µM | > 100 µM | > 100 µM | > 100 µM | – | > 100 µM | > 100 µM | > 100 µM | > 100 µM | > 100 µM | > 100 µM | > 100 µM | > 100 µM | > 100 µM | > 100 µM |
| Cc1nc2c(ccc3ncccc32)[nH]1 | – | > 100 µM | > 100 µM | > 100 µM | > 100 µM | > 100 µM | > 100 µM | > 100 µM | – | – | – | – | > 100 µM | – | – | – | – | – | – | – |
| OCc1cc2ccccc2c2c3c(ccc12)OCO3 | 125 µM | – | – | 199 µM | 203 µM | 207 µM | 37.4 µM | 209 µM | 140 µM | – | 40 µM | 32 µM | 96.6 µM | 29.2 µM | 42.3 µM | 48.1 µM | 25.4 µM | 40.9 µM | 18.8 µM | 26.5 µM |
| COC1/C=C/OC2(C)Oc3c(C)c(O)c4c(O)c(c(/C=N/Nc5ccc([N+](=O)[O-])cc5[N+](=O)[O-])c(O)c4c3C2=O)NC(=O)C(C)=C/C=C/C(C)C(O)C(C)C(O)C(C)C(OC(C)=O)C1C (centres undefined) | > 50 µM | > 50 µM | – | 3.93 µM | 7.02 µM | 11.6 µM | 10.5 µM | 6.13 µM | 3.92 µM | 1.55 µM | – | 10.6 µM | 31.1 µM | 1.41 µM | 1.67 µM | 1.21 µM | 1.34 µM | 3.59 µM | 2.8 µM | 2 µM |
| FC(F)(F)c1cccc(Nc2nc(-c3ccccc3)nc3ncccc23)c1 | 14.7 µM | – | 17.9 µM | 18.2 µM | 6.51 µM | 90.4 µM | 13.9 µM | 28.7 µM | 13.2 µM | – | 3.17 µM | 11 µM | 24 µM | 3.74 µM | 2.51 µM | 5.63 µM | 3.34 µM | 13.2 µM | 4.07 µM | 3.72 µM |
